Measurements: ChEMBL document CHEMBL1909046, “DrugMatrix in vitro pharmacology data”

Tests used:
[1] = biological target: T1, C-X-C chemokine receptor type 2 (Homo sapiens, UniProt P25025); format: cell membranes, CHO-K1, Membrane; details: cho-k1; note: in other assays of this panel Not Active means under 50% inhibition at 10 µM
T1 sequence (P25025 whole entry): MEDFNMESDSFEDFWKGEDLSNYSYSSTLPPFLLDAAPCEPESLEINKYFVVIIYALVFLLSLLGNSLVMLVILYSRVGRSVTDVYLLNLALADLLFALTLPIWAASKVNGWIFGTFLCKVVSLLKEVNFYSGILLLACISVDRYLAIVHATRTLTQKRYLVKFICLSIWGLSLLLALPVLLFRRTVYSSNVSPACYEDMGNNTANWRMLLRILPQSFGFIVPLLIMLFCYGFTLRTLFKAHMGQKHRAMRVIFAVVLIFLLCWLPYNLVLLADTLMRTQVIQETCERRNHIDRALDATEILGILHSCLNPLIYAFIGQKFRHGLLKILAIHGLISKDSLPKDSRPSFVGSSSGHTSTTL

[2] = DRUGMATRIX: ATPase, Na+/K+ enzyme inhibition (substrate: ATP); format: tissue-based, Sus scrofa, Heart; details: Not Active = under 50% inhibition at 10 µM
Insulin receptor = Insulin receptor (Rattus norvegicus, UniProt P15127); format: cell membranes, Wistar, Liver, Membrane; note: in other assays of this panel Not Active means under 50% inhibition at 10 µM
[3] = biological target: Voltage-gated inwardly rectifying potassium channel KCNH2 (Homo sapiens, UniProt Q12809); details: hek293; note: in other assays of this panel Not Active means under 50% inhibition at 10 µM
[4] = biological target: Protein kinase C alpha type (Homo sapiens, UniProt P17252); format: cell-based; details: sf9;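 note: inhibition of PKCalpha kinase activity measured in an enzyme assay with histone as the phosphorylation substrate; in other assays of this panel Not Active means under 50% inhibition at 10 µM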
Cytochrome P450 3A4 = Cytochrome P450 3A4 (Homo sapiens, UniProt P08684); details: bti-tn-5b1-4; note: in other assays of this panel Not Active means under 50% inhibition at 10 µM
[5] = biological target: Beta-2 adrenergic receptor (Homo sapiens, UniProt P07550); experiment: DRUGMATRIX: Adrenergic beta2 radioligand binding (ligand: [3H] CGP-12177); format: cell membranes, CHO, Membrane; details: cho; Not Active = under 50% inhibition at 10 µM
[6] = biological target: Protein phosphatase 3 catalytic subunit alpha (Homo sapiens, UniProt Q08209); parameters: species or system Escherichia coli
[7] = biological target: T2, 3-hydroxy-3-methylglutaryl-coenzyme A reductase (Homo sapiens, UniProt P04035); parameters: species or system Escherichia coli
T2 sequence (P04035 whole entry): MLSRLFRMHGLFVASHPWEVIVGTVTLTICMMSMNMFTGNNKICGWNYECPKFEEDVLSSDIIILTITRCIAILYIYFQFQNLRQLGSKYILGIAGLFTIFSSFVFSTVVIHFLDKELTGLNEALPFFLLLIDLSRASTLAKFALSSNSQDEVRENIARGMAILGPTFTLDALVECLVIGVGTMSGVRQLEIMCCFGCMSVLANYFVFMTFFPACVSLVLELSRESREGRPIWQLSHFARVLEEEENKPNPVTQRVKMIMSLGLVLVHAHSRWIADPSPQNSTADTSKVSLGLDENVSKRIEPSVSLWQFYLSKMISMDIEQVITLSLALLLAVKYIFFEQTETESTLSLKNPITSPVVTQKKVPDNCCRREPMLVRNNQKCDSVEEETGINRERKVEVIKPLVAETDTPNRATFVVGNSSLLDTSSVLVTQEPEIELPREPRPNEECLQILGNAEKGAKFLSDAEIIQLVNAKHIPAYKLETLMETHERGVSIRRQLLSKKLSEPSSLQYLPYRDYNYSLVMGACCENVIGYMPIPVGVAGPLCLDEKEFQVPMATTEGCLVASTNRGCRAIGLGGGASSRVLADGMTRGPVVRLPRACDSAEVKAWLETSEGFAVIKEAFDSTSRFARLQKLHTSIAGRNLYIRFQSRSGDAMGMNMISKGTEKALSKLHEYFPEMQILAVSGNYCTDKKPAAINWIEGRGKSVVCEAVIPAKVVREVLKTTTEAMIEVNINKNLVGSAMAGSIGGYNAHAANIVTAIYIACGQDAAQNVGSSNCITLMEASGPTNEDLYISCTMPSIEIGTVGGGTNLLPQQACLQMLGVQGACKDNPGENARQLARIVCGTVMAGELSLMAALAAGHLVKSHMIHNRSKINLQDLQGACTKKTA

Chain of Cytochrome P450 3A4 (P08684 whole entry): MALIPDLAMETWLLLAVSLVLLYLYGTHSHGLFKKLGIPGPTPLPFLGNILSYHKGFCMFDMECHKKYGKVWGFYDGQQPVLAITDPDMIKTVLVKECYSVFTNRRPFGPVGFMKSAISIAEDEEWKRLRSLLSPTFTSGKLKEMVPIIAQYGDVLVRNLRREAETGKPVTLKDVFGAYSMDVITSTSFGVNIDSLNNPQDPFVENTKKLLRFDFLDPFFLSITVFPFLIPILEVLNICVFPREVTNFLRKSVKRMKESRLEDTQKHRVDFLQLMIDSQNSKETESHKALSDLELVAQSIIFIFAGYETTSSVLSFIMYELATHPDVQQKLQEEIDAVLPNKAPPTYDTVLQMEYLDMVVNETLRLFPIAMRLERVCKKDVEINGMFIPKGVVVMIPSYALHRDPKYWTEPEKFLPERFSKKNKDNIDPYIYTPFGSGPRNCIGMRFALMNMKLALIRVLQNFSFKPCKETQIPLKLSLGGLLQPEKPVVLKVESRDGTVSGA
Chain of Insulin receptor (P15127 27-759 limits assumed): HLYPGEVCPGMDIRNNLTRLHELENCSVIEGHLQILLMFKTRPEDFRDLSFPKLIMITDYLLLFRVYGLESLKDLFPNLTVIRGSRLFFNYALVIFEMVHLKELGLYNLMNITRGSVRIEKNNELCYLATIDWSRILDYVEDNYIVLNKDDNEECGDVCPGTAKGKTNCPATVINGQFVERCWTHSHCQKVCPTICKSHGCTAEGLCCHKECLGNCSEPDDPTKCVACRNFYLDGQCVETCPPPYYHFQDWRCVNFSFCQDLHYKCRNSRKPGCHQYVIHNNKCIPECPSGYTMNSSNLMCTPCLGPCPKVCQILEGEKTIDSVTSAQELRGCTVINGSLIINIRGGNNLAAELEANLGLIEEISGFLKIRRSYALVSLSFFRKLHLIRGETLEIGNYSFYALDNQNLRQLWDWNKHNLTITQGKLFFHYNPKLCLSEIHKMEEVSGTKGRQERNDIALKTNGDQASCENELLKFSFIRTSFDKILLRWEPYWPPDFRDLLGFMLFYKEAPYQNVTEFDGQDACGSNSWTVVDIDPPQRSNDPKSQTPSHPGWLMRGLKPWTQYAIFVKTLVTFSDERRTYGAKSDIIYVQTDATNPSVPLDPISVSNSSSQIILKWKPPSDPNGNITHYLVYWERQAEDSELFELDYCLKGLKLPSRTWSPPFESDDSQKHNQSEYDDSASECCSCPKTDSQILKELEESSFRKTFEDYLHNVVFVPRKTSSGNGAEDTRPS
Chain of Insulin receptor (P15127 764-1383 limits assumed): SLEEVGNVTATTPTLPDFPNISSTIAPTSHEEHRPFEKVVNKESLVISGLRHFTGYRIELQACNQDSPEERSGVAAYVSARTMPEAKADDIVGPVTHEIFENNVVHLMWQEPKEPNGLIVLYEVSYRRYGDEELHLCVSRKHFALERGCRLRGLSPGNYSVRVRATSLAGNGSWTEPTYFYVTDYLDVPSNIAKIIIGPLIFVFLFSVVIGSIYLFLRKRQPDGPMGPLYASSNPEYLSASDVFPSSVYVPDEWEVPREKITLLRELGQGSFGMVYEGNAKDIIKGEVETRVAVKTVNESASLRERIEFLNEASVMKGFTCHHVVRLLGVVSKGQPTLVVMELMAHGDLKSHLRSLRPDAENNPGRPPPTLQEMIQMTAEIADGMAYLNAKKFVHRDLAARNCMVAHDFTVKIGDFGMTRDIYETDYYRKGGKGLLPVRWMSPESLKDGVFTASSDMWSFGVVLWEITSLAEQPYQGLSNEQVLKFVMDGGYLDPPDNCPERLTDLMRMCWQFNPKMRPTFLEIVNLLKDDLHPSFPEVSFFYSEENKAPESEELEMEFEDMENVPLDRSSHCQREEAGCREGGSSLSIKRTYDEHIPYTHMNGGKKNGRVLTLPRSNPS
Chain of Beta-2 adrenergic receptor (P07550 whole entry): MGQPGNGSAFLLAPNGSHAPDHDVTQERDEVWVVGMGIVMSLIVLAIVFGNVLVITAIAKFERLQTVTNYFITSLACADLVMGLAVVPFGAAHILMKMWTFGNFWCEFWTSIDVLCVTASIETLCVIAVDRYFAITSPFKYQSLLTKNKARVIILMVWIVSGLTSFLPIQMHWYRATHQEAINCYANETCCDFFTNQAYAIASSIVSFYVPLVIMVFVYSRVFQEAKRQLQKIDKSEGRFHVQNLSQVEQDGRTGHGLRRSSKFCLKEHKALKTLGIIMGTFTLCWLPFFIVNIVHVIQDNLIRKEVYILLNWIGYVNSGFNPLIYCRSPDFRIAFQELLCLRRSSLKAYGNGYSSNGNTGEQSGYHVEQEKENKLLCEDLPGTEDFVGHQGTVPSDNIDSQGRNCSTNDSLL
Chain of Voltage-gated inwardly rectifying potassium channel KCNH2 (Q12809 whole entry): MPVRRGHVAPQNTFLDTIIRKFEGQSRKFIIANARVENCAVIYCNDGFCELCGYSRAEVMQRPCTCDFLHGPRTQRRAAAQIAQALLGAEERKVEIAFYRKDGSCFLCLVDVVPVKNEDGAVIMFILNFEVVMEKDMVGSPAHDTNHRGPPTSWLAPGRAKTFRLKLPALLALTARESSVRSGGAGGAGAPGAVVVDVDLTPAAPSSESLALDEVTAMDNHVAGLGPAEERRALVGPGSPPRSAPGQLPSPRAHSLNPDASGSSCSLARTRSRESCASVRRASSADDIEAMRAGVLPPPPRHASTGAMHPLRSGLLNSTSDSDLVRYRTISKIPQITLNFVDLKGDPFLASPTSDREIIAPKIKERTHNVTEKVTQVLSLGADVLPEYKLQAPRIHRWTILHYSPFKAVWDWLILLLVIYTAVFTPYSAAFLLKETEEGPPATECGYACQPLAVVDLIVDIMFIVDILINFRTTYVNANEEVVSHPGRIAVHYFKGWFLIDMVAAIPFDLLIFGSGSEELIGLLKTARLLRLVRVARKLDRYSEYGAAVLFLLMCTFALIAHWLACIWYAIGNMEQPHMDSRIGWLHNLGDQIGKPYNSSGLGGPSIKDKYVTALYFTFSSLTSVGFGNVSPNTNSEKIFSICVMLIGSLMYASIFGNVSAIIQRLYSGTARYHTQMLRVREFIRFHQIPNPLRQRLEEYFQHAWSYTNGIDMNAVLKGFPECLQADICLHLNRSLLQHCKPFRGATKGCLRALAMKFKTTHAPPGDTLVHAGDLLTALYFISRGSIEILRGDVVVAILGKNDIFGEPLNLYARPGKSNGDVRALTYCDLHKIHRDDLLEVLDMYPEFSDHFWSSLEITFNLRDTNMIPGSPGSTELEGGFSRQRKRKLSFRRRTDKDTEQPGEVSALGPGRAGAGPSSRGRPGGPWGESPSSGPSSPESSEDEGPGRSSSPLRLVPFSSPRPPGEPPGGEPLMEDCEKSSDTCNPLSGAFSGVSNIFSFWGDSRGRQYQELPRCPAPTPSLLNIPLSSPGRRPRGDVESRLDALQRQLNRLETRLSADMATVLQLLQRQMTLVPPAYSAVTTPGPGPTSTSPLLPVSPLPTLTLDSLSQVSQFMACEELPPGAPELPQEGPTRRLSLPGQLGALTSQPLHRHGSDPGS

OC[C@H]1O[C@@H]2O[C@H]3[C@H](O)[C@@H](O)[C@@H](O[C@H]4[C@H](O)[C@@H](O)[C@@H](O[C@H]5[C@H](O)[C@@H](O)[C@@H](O[C@H]6[C@H](O)[C@@H](O)[C@@H](O[C@H]7[C@H](O)[C@@H](O)[C@@H](O[C@H]1[C@H](O)[C@H]2O)O[C@@H]7CO)O[C@@H]6CO)O[C@@H]5CO)O[C@@H]4CO)O[C@@H]3CO [ALFADEX]
Not Active: IC50 [1] | IC50 [2] | Ki [2] | IC50 (Insulin receptor) | IC50 [3] | Ki [3] | IC50 [4] | IC50 (Cytochrome P450 3A4) | Ki (Cytochrome P450 3A4) | IC50 [5] | IC50 [6] | IC50 [7]

ClC1=C(Cl)[C@]2(Cl)[C@@H]3[C@@H]4C[C@@H]([C@H]5O[C@@H]45)[C@@H]3[C@@]1(Cl)C2(Cl)Cl [DIELDRIN]
Not Active: IC50 [1] | IC50 [2] | Ki [2] | IC50 (Insulin receptor) | IC50 [3] | Ki [3] | IC50 [4] | IC50 (Cytochrome P450 3A4) | Ki (Cytochrome P450 3A4) | IC50 [5] | IC50 [6] | IC50 [7]

O=c1[nH]c2ccccc2c2ccccc12
Not Active: IC50 [1] | IC50 [2] | Ki [2] | IC50 (Insulin receptor) | IC50 [3] | Ki [3] | IC50 [4] | IC50 (Cytochrome P450 3A4) | Ki (Cytochrome P450 3A4) | IC50 [5] | IC50 [6] | IC50 [7]

CCC1(c2ccccc2)C(=O)NC(=O)NC1=O [PHENOBARBITAL]
Not Active: IC50 [1] | IC50 [2] | Ki [2] | IC50 (Insulin receptor) | IC50 [3] | Ki [3] | IC50 [4] | IC50 (Cytochrome P450 3A4) | Ki (Cytochrome P450 3A4) | IC50 [5] | IC50 [6] | IC50 [7]

Nc1ccc(C(=O)O)c(O)c1 [AMINOSALICYLIC ACID]
Not Active: IC50 [1] | IC50 [2] | Ki [2] | IC50 (Insulin receptor) | IC50 [3] | Ki [3] | IC50 [4] | IC50 (Cytochrome P450 3A4) | Ki (Cytochrome P450 3A4) | IC50 [5] | IC50 [6] | IC50 [7]
